Laboratory results: US20240400577A1, “MODULATORS OF PROTEIN KINASES” (VIBLIOME THERAPEUTICS, LLC, priority 2021, published 2024)

Tests used:
Experiment in all cases: Kinase panel enzymatic inhibition assay (Nanosyn)
Assay type in all cases: biochemical
Settings in all cases: compound 5 μM; ATP at Km; 30-minute pre-incubation
Abl2 = molecular target: T1, Abl2 (Homo sapiens, UniProt P42684)
T1 construct: purchased Nanosyn (contract screening)
Summary of the method: (§1)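 Single-point screen: compound 5 μM, ATP at Km per kinase, 30 min pre-incubation. Readout by mobility shift (Caliper LabChip), ADP detection or TR-fluorescence. Reported as % inhibition or IC50.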

CRAF = molecular target: T2, CRAF (Homo sapiens, UniProt P04049)
T2 construct: purchased Nanosyn (contract screening)
Summary of the method: as §1

CSF1R = molecular target: T3, CSF1R (Homo sapiens, UniProt P07333)
T3 construct: purchased Nanosyn (contract screening)
Summary of the method: as §1

DDR1 = molecular target: T4, DDR1 (Homo sapiens, UniProt Q08345)
T4 construct: purchased Nanosyn (contract screening)
Summary of the method: as §1

EPH = system: EPH
Summary of the method: as §1

ERBB4 = molecular target: T5, ERBB4 (Homo sapiens, UniProt Q15303)
T5 construct: purchased Nanosyn (contract screening)
Summary of the method: as §1

KDR = molecular target: T6, KDR (Homo sapiens, UniProt P35968)
T6 construct: purchased Nanosyn (contract screening)
Summary of the method: as §1

PKCb1 = molecular target: T7, PKCb1 (Homo sapiens, UniProt P05771)
T7 construct: Nanosyn (contract laboratory that ran the panel)
Summary of the method: as §1

SGK3 = molecular target: T8, SGK3 (Homo sapiens, UniProt Q96BR1)
T8 construct: Nanosyn (contract laboratory that ran the panel)
T8 sequence (Q96BR1 1-496): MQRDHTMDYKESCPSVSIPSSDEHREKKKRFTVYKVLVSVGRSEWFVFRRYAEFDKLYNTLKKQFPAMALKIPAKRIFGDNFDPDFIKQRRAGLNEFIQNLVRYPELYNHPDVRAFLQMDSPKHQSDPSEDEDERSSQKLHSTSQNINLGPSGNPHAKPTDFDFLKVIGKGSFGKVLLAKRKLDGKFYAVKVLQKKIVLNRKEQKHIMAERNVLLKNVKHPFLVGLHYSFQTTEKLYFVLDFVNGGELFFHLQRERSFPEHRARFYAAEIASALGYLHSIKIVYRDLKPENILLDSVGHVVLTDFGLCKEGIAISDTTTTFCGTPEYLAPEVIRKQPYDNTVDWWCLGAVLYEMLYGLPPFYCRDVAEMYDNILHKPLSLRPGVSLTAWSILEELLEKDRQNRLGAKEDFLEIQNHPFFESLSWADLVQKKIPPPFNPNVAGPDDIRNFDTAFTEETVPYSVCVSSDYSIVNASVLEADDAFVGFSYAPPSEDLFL
Summary of the method: as §1

TAOK2 = molecular target: T9, TAOK2 (Homo sapiens, UniProt Q9UL54)
T9 construct: Nanosyn (contract laboratory that ran the panel)
T9 sequence (Q9UL54 1-1235): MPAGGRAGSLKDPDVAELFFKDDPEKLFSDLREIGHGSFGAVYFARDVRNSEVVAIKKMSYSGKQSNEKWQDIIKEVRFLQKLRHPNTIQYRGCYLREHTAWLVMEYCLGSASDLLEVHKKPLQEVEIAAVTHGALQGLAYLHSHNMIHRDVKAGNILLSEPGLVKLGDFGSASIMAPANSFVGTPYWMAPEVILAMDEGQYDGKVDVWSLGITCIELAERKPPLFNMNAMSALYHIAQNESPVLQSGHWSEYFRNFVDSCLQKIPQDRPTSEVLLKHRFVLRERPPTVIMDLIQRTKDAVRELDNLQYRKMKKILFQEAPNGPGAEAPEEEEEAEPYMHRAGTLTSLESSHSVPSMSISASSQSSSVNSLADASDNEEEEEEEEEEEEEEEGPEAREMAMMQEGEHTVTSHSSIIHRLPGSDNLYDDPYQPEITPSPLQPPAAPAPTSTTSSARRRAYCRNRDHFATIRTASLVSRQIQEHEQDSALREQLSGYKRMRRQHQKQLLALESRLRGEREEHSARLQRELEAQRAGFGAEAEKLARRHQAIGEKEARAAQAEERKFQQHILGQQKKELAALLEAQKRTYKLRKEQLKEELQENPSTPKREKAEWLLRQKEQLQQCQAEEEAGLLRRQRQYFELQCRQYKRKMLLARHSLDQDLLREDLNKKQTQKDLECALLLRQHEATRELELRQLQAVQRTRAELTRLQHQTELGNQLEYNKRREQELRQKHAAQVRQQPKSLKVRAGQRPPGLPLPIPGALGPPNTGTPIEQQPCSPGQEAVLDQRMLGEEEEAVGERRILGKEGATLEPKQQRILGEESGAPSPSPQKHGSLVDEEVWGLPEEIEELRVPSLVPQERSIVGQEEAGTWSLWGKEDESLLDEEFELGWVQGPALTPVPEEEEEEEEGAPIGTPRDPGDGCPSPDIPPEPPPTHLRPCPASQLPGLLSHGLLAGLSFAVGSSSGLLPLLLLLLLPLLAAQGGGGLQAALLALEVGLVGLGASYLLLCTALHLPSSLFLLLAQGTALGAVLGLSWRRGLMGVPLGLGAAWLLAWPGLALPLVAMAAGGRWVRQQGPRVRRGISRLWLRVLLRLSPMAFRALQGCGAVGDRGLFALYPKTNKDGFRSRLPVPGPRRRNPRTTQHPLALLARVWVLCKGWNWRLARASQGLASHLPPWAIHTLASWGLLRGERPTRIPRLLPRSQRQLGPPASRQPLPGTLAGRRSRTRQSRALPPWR
Summary of the method: as §1

TNIK = molecular target: T10, TNIK (Homo sapiens, UniProt Q9UKE5)
T10 construct: Nanosyn (contract laboratory that ran the panel)
Summary of the method: as §1

T7 sequence (P05771 whole entry): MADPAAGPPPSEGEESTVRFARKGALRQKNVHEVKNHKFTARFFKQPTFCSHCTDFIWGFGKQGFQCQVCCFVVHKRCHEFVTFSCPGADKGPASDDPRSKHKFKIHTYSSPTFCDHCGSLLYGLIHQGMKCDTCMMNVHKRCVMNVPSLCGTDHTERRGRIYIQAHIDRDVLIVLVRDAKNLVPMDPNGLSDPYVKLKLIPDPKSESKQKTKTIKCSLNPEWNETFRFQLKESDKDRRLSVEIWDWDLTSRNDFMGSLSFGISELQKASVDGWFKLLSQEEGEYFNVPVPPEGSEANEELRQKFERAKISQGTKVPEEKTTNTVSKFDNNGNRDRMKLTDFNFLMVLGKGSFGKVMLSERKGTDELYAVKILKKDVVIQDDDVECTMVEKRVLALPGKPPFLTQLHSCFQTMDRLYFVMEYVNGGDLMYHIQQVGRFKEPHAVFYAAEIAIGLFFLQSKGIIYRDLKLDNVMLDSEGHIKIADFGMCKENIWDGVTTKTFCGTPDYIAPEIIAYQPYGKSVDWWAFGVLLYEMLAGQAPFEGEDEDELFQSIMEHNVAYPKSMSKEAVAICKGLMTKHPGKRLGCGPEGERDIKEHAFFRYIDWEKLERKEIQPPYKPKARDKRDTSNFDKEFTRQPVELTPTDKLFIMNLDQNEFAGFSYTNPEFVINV
T5 sequence (Q15303 26-1308): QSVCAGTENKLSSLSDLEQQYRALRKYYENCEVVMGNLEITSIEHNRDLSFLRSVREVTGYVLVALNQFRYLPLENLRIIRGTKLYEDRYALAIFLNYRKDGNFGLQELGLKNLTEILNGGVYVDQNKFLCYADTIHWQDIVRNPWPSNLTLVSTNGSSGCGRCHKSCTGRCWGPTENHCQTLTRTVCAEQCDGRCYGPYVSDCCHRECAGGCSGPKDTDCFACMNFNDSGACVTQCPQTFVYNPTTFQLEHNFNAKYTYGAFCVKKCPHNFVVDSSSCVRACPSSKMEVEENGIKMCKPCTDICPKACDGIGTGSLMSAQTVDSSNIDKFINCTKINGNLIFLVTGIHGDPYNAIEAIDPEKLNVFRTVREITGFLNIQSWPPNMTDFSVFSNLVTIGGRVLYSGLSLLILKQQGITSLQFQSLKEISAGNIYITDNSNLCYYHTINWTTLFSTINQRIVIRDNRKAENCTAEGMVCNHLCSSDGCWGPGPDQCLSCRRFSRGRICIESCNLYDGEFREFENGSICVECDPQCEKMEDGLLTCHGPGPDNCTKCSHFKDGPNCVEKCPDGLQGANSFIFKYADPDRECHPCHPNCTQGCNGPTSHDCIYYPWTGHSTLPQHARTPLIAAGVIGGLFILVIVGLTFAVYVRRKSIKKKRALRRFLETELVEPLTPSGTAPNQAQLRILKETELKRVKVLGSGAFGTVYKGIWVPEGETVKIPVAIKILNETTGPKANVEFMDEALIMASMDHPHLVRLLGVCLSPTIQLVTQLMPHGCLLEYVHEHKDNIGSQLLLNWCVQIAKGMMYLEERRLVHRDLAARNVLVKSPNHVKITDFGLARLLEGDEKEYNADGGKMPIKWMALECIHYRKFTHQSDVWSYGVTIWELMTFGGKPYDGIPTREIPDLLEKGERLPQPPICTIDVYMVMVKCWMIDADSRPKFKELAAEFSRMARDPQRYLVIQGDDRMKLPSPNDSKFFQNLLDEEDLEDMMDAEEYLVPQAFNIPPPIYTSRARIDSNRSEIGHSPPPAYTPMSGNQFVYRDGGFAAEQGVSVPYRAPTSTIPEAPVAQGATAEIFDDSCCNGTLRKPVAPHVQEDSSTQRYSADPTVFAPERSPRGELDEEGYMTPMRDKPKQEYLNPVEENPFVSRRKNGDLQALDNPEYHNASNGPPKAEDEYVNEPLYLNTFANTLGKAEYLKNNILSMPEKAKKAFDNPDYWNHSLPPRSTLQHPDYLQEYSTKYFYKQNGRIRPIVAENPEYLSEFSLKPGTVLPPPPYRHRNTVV
T1 sequence (P42684 whole entry): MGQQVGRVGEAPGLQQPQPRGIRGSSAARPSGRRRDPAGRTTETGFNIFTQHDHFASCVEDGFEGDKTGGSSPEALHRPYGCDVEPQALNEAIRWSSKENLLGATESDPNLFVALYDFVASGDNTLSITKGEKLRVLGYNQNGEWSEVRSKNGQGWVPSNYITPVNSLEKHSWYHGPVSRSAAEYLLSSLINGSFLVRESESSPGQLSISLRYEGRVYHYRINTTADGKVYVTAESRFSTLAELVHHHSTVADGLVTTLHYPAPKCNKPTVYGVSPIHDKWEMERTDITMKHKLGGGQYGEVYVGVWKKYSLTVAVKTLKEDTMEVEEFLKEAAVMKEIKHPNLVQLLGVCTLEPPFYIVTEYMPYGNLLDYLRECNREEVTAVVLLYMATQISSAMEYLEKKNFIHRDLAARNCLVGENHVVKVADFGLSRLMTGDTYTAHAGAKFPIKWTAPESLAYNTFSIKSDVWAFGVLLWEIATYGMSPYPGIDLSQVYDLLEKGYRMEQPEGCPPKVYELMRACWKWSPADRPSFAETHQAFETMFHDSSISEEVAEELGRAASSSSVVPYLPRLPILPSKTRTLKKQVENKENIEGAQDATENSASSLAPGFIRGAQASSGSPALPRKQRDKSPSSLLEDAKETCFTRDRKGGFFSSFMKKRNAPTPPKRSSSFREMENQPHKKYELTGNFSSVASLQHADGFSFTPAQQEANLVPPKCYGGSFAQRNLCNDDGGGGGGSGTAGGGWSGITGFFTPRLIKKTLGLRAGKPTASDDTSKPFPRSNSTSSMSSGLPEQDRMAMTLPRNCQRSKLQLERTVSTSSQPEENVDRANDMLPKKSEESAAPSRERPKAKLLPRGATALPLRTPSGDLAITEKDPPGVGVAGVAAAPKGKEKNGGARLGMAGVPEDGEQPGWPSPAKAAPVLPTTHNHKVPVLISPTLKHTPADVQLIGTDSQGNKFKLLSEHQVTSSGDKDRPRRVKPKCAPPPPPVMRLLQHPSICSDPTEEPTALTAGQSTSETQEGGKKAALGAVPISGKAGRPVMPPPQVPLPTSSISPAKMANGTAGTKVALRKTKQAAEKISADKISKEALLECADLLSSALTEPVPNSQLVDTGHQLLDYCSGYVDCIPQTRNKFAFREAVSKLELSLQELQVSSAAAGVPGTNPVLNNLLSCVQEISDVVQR
T3 sequence (P07333 20-972): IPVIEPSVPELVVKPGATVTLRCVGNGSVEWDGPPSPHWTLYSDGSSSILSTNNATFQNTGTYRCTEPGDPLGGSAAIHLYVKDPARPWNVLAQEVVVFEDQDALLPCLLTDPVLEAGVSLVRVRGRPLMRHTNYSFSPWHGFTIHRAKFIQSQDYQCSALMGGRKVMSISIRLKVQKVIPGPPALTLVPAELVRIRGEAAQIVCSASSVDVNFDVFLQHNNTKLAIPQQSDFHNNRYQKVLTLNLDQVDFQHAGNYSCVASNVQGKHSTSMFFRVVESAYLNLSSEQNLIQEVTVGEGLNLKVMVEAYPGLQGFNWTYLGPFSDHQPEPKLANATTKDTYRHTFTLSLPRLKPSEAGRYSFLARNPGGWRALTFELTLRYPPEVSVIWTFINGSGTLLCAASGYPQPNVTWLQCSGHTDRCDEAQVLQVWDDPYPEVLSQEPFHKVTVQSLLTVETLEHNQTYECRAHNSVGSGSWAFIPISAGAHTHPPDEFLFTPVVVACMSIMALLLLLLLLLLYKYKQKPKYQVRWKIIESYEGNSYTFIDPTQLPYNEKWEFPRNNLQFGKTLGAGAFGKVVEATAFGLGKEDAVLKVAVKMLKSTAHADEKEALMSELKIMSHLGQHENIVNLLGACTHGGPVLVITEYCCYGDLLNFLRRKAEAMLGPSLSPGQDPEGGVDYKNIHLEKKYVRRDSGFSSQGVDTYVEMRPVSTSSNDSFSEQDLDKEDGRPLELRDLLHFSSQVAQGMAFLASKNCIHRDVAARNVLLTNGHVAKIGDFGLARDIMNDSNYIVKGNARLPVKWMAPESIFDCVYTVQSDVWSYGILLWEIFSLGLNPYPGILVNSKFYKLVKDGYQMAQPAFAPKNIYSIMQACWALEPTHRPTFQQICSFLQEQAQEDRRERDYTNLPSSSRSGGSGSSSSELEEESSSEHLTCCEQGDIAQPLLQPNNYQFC
T4 sequence (Q08345 19-913): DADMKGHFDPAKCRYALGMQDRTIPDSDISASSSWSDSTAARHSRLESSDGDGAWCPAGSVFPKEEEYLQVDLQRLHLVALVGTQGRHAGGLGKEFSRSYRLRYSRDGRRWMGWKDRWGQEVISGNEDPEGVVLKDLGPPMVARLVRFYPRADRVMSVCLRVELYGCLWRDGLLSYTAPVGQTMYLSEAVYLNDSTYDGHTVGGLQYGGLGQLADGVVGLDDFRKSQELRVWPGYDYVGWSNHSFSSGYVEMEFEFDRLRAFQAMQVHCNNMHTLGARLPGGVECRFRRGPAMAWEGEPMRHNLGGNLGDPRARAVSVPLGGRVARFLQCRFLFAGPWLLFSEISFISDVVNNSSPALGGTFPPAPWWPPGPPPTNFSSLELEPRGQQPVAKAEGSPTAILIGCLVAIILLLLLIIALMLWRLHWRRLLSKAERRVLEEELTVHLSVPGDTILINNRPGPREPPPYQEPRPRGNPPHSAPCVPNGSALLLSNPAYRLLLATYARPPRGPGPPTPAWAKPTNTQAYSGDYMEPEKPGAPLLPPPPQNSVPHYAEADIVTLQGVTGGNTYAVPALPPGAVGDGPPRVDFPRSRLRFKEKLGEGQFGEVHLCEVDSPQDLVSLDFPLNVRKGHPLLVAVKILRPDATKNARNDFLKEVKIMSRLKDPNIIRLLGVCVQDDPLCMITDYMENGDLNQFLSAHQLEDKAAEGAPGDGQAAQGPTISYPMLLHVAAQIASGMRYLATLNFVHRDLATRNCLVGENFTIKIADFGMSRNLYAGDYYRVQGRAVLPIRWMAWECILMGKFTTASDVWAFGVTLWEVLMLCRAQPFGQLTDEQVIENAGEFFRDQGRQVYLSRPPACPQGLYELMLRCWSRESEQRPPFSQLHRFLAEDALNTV

inhibition at 5 µM (Abl2) [%] | inhibition at 5 µM (CRAF) [%] | inhibition at 5 µM (CSF1R) [%] | inhibition at 5 µM (DDR1) [%] | kinase inhibition, EPH (EPH) | inhibition at 5 µM (ERBB4) [%] | inhibition at 5 µM (KDR) [%] | inhibition at 5 µM (PKCb1) [%] | inhibition at 5 µM (SGK3) [%] | inhibition at 5 µM (TAOK2) [%] | inhibition at 5 µM (TNIK) [%] | Compound
< 79 | ≥ 95 | < 79 | 80 to 89 | D (D=79% and less) | < 79 | < 79 | < 79 | < 79 | 80 to 89 | < 79 | Cc1ccc(NC(=O)c2cc(S(C)(=O)=O)n(-c3ccc(F)cc3)n2)cc1-c1cc(N2CCOCC2)c(=O)n(C)c1 [Ex12, 1-(4-fluorophenyl)-N-(4-methyl-3-(1-methyl-5-morpholino-6-oxo-1,6-dihydropyridin-3-yl)phenyl)-5-(methylsulfonyl)-1H-pyrazole-3-carboxamide]
≥ 95 | < 79 | ≥ 95 | ≥ 95 | D (D=79% and less) | 80 to 89 | < 79 | < 79 | < 79 | < 79 | < 79 | Cc1ccc(NC(=O)c2cc(S(C)(=O)=O)n(-c3ccc(F)cc3)n2)cc1Nc1nccc(-c2cccnc2N)n1 [Ex13, N-(3-((4-(2-aminopyridin-3-yl)pyrimidin-2-yl)amino)-4-methylphenyl)-1-(4-fluorophenyl)-5-(methylsulfonyl)-1H-pyrazole-3-carboxamide]
≥ 95 | ≥ 95 | 90 to 94 | ≥ 95 | D (D=79% and less) | < 79 | 90 to 94 | < 79 | < 79 | < 79 | < 79 | Cc1ccc(NC(=O)c2cc(S(C)(=O)=O)n(-c3ccc(F)cc3)n2)cc1C#Cc1cnc2cccnn12 [Ex14, 1-(4-fluorophenyl)-N-(3-(imidazo[1,2-b]pyridazin-3-ylethynyl)-4-methylphenyl)-5-(methylsulfonyl)-1H-pyrazole-3-carboxamide]
≥ 95 | ≥ 95 | ≥ 95 | ≥ 95 | D (D=79% and less) | < 79 | 80 to 89 | < 79 | < 79 | < 79 | < 79 | CCOC(=O)Nc1cn2nc(Nc3cc(NC(=O)c4cc(S(C)(=O)=O)n(-c5ccc(F)cc5)n4)ccc3C)ccc2n1 [Ex15, ethyl (6-((5-(1-(4-fluorophenyl)-5-(methylsulfonyl)-1H-pyrazole-3-carboxamido)-2-methylphenyl)amino)imidazo[1,2-b]pyridazin-2-yl)carbamate]
< 79 | < 79 | < 79 | 80 to 89 | D (D=79% and less) | < 79 | < 79 | < 79 | < 79 | < 79 | < 79 | CNC(=O)c1cc(Oc2ccc(NC(=O)c3cc(S(C)(=O)=O)n(-c4ccc(F)cc4)n3)c(F)c2)ccn1 [Ex17, 4-(3-fluoro-4-(1-(4-fluorophenyl)-5-(methylsulfonyl)-1H-pyrazole-3-carboxamido)phenoxy)-N-methylpicolinamide]
80 to 89 | ≥ 95 | 80 to 89 | ≥ 95 | D (D=79% and less) | < 79 | < 79 | < 79 | < 79 | < 79 | < 79 | CCOC(=O)Nc1cn2nc(Nc3cc(NC(=O)c4cc([S+](C)[O-])n(-c5ccc(F)cc5)n4)ccc3C)ccc2n1 (stereo not drawn) [Ex18, ethyl (6-((5-(1-(4-fluorophenyl)-5-(methylsulfinyl)-1H-pyrazole-3-carboxamido)-2-methylphenyl)amino)imidazo[1,2-b]pyridazin-2-yl)carbamate]
